Patent publication US20050282863A1, “Novel-N substituted dihydrobenzothiepino, dihydrobenzoxepino and tetrahydro benzocyclohepta indoles as selective estrogen receptor modulators” (Council of Scientific & Industrial Research, priority 2004, published 2005)
Where two headings read alike, the source gives them in different places. Each block holds one compound with its values, some of them ahead of it.

What was measured:
[1] = system: immature ovariectomized rats; assay: Estrogen agonistic activity: increase in uterine weight in immature ovariectomized rats; assay type: in vivo, rat; conditions: 3 days, percent of ovariectomized + vehicle group
Experimental: Twenty-one-day-old immature female rats are bilaterally ovariectomized under light ether anaesthesia and, after post-operative rest for 7 days, are randomized into different treatment groups. Each rat receives the compound of the invention once daily for 3 consecutive days on days 28-30 of age. A separate group of animals receiving only the vehicle for similar duration serves as control. A autopsy 24 h after the last treatment on day 31 of age, vaginal smear of each rat is taken and uterus is carefully exised, gently blotted, weighed and fixed for histology and histomorphometry using image analysis. Premature opening of vagina, cornification of vaginal epitelium, increase in uterine fresh weight, total uterine and endometrial area and uterine luminal epithelial cell height are taken as parameters for evaluation of estrogen agonistic activity in comparision to rats of vehicle control group.

[2] = system: immature ovariectomized rats; assay: Estrogen antagonistic activity: inhibition in 17α-ethynylestradiol induced uterine weight gain in immature ovariectomized rats; assay type: in vivo, rat; conditions: 3 days
Experimental: Twenty-one-day-old immature female rats are bilaterally ovariectomized under light ether anaesthesia and after post-operative rest for 7 days, are randomized into different treatment groups. Each rat receives the compounds of the invention and 0.02 mg/kg dose of 17-alfa-ethynylestradiol in 10% ethanol-distilled water once daily for 3 consecutive days on days 28-30 of age. A separate group of animals receiving only 17-alfa-ethynylestradiol (0.02 mg/kg) in 10% ethanol-distilled water for similar duration are used for comparison. At autopsy on day 31 of age, vaginal smear of each rat is taken and uterus is carefully excised, gently blotted, weighed and fixed for histology and histomorphometry using image analysis. Inhibition in 17-alfa-ethynylestradiol-induced premature opening of vagina, cornification of vaginal epithelium, increase in uterine fresh weight, total uterine and endometrial area and uterine luminal epithelial cell height are taken as parameters for evaluation of estrogen antagonistic activity.

[3] = system: adult female rats; assay: Post-coital antifertility efficacy in adult female rats; assay type: in vivo, rat; conditions: daily dose 10 mg/kg, oral, days 1-7 post-coitum
Source text: Adult female rats are caged overnight with coeval males of proven fertility and their vaginal smears are checked on the following morning. The day of presence of spermatozoa in the vaginal smear is taken as day 1 of pregnancy. Mated rats are isolated and randomized into various treatment groups and treated orally with the compound of invention or the vehicle on days 1-7/1-5 post-coitum. Animals of all the groups are autopsied on day 10 post-coitum and number and status of corpora lutea and implantation sites in each rat are recorded. The compounds of the present invention are considered active if there is complete absence of implantations in the uterus of all rats, in comparison to presence of normal implantations in the uterus of rats of vehicle control group.

[4] = system: MCF-7 cells; assay: Antiproliferative/cytotoxic activity in cultured MCF-7 cells (SRB assay); assay type: cell-based; conditions: Homo sapiens, MCF7, 48 h, MCF-7, 48 h
Experimental: The procedure is based on the following methods: New calorimetric assay for anticancer drug screening, Skehan et al., J Natn Cancer Inst, 82,1107, 1990 and Feasibility of a high-flux anticancer drug screen using a diverse panel of cultured human tumor cell lines, J Natn Cancer Inst, 83,757, 1991.
A fully confluent flask of MCF-7 cells in trypsinized and 10^4 cells/well are plated in a 96 welled flat bottomed plate in 200 μl Minimum Essential Medium (MEM), pH 7.4 and allowed to attach for 24 h at 37° C. in a humidified CO2 incubator. Subsequently, the compound of invention dissolved in DMSO or ethanol is added at a specified concentration and further incubated for 48 h as before. The cells are then fixed in 50 μl cold 50% TCA and incubated for 1 h at 4° C. The supernatant is discarded and the plate is washed five times with deionized water and air-dried. 100 μl of 0.4% (w/v) Sulforhodamine B (SRB) in 1% acetic acid is added to each well and incubated at room temperature for 30 minutes. Unbound SRB is removed by five washes with chilled 1% acetic acid and the plate is air-dried. 200 μl of unbuffered 10 mM Tris base is added to solublize the bound stain for 5 minutes at room temperature and O.D. is read at 560 nm in a plate reader. The graph is plotted between O.D. and concentration and LC50 is calculated with respect to tamoxifen, which is used as a positive control.

[5] = target: T1, estrogen receptors (Rattus norvegicus, UniProt P06211); assay: Relative binding affinity (RBA) to estrogen receptors, 3H-estradiol competition assay; parameters: key: % of 17-beta-estradiol binding affinity (estradiol = 100); conditions: relative to 17-beta-estradiol (=100, percentage value); rat uterine cytosol, 3H-E2, 18 hrs at 4° C.
T1 construct: Aliquot of uterine cytosol (200 μl; 2 uteri per ml) prepared in TEA buffer; from tissue; host or cells: uterine cytosol of immature estradiol-primed 20-21 day old rats
T1 sequence (P06211 1-600): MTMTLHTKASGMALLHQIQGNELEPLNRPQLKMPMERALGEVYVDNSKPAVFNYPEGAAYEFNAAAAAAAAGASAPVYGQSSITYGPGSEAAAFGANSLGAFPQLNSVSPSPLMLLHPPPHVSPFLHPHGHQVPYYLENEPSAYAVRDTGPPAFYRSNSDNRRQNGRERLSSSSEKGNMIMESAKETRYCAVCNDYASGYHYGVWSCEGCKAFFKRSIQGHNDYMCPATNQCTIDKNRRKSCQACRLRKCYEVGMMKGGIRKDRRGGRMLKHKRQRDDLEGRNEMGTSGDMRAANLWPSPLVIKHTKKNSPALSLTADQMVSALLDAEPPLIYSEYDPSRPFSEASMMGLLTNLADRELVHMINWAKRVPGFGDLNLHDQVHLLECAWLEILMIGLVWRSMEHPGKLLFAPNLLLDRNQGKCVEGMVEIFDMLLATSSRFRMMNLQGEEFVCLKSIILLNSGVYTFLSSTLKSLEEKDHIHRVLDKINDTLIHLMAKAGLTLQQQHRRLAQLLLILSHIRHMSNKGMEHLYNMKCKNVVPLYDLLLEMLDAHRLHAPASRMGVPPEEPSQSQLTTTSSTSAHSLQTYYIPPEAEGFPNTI
Experimental: The relative binding affinity (RBA) of the compounds for estrogen receptor is determined by competition assay, employing ^3H-estradiol (^3H-E2) as the radioligand. The test ligands and ^3H-E2 are incubated at 4° C. with cystol estrogen receptors obtained from uteri of immature estradoil-primed (1 μg/rat 24 h before autopsy) 20-21 days old rats. Aliquot of uterine cytosol (200 μl; 2 uteri per ml) prepared in TEA buffer (10 mM Tris, 1.5 mM EDTA, 0.02% sodium azide, pH 7.4) are incubated in duplicate with a fixed concentration of ^3H-E2 in the absence or presence of various concentrations of the competitor substance dissolved in 30 μl of the TEA buffer containing DMF as co-solvent (final concentration of DMF in the incubation mixture never exceeded 5%) for 18 hrs at 4° C. At the end of this period, dextran coated charcoal (5% Norit 0.5% dextran) suspension in 100 μl of TEA buffer is added to each tube, briefly vortexed and allowed to stand for 15 minutes at 4° C. The mixture is centrifuged at 800 g for 10 minutes and the supernatants counted for radioactivity in 10 ml of a dioxane-based scintillation fluid. RBA of the text compound is computed from a graph plotted between percent bound radioactivity verses log concentration of the test substance. […] This when multiplied with 100 gives the percentage value designated as RBA.

SMILES: C#C[C@]1(O)CC[C@H]2[C@@H]3CCc4cc(O)ccc4[C@H]3CC[C@@]21C [17α-Ethynylestradiol, reference compound]
Percent increase in uterine weight ([1]; daily dose 0.01 mg/kg): 419%

SMILES: c1ccc2c(c1)SCCc1c-2n(CCCN2CCCCC2)c2ccccc12 [Example number 7, 12-[3-(Piperidine-1-yl)propyl]-6,7-dihydro-12H-benzothiepino [5,4-b]indole]
change in vivo at 3 mg/kg ([1]; Rattus norvegicus, 72 h, daily dose 3 mg/kg): 24.6%
change in vivo at 10 mg/kg ([1]; Rattus norvegicus, 72 h, daily dose 10 mg/kg): 109%
inhibition in vivo at 10 mg/kg/day ([2]; Rattus norvegicus, 72 h, daily dose 10 mg/kg with 0.02 mg/kg 17-alfa-ethynylestradiol, read-out: Percent inhibition in 17α-ethynylestradiol induced uterine weight gain): 15.4%
% Efficacy [3]: Inactive
CC50 ([4]; read-out: LC50, Test-1): 46 µM

SMILES: c1ccc2c(c1)SCCc1c-2n(CCCCN2CCCCC2)c2ccccc12 [Example number 9, 12-[4-(Piperidine-1-yl)butyl]-6,7-dihydro-12H-benzothiepino [5,4-b]indole]
CC50 ([4]; read-out: LC50, Test-2): 37.4 µM

SMILES: CCCCN(C)CCCCCn1c2c(c3ccccc31)CCSc1ccccc1-2.O=C1O[C@H]([C@@H](O)CO)C(O)=C1O [Example number 15, 12-[5-(N-butylmethylamino)pentyl]-6,7-dihydro-12H-benzothiepino [5,4-b]indole ascorbic acid salt]
Percent increase in uterine weight ([1]; daily dose 1 mg/kg): 11.00%
Percent increase in uterine weight ([1]; daily dose 3 mg/kg): 15.00%
Percent increase in uterine weight ([1]; daily dose 10 mg/kg): 11.50%
Percent inhibition in 17α-ethynylestradiol induced uterine weight gain ([2]; daily dose 1 mg/kg with 0.02 mg/kg 17-alfa-ethynylestradiol): 10.00%
Percent inhibition in 17α-ethynylestradiol induced uterine weight gain ([2]; daily dose 3 mg/kg with 0.02 mg/kg 17-alfa-ethynylestradiol): 23.00%
Percent inhibition in 17α-ethynylestradiol induced uterine weight gain ([2]; daily dose 10 mg/kg with 0.02 mg/kg 17-alfa-ethynylestradiol): 15.00%

RBA [5]: 0.053
SMILES: c1ccc2c(c1)SCCc1c-2n(CCCCCCN2CCCC2)c2ccccc12 [Example number 19, 12-[6-(Pyrrolidine-1-yl)hexyl]-6,7-dihydro-12H-benzothiepino [5,4-b]indole]

RBA [5]: 0.10
SMILES: CCCCN(C)CCCCCCn1c2c(c3ccccc31)CCSc1ccccc1-2 [Example number 20, 12-[6-(N-butylmethylamino)hexyl]-6,7-dihydro-12H-benzothiepino [5,4-b]indole]

SMILES: COc1ccc2c(c1)SCCc1c-2n(CCCCCN2CCCCC2)c2ccccc12 [Example number 22, 3-Methoxy-12-[5-(piperidine-1-yl)pentyl]-6,7-dihydro-12H-benzothiepino [5,4-b]indole]
CC50 ([4]; read-out: LC50, Test-4): 19.5 µM
RBA [5]: <0.001

SMILES: COc1ccc2c(c1)SCCc1c-2n(CCCCCN2CCCC2)c2ccccc12 [Example number 23, 3-Methoxy-12-[5-(pyrrolidine-1-yl)pentyl]-6,7-dihydro-12H-benzothiepino [5,4-b]indole]
CC50 ([4]; read-out: LC50, Test-4): 60 µM
RBA [5]: <0.001

SMILES: Oc1ccc2c(c1)SCCc1c-2n(CCCCCN2CCCC2)c2ccccc12 [Example number 25, 3-Hydroxy-12-[5-(pyrrolidine-1-yl)pentyl]-6,7-dihydro-12H-benzothiepino [5,4-b]indole]
CC50 ([4]; read-out: LC50, Test-2): 15 µM
RBA [5]: 0.83

RBA [5]: <0.001
SMILES: Oc1ccc2c(c1)c1c(n2CCCCCN2CCCCC2)-c2ccccc2SCC1 [Example number 29, 9-Hydroxy-12-[5-(piperidine-1-yl)pentyl]-6,7-dihydro-12H-benzothiepino [5,4-b]indole]
% Efficacy [3]: Inactive

SMILES: COc1ccc2c(c1)SCCc1c-2n(CCCCCN2CCCCC2)c2ccc(OC)cc12 [Example number 32, 3,9-Dimethoxy-12-[5-(piperidine-1-yl)pentyl]-6,7-dihydro-12H-benzothiepino [5,4-b]indole]
CC50 ([4]; read-out: LC50, Test-4): 28 µM
RBA [5]: <0.001

SMILES: COc1ccc2c(c1)SCCc1c-2n(CCCCCN2CCCC2)c2ccc(OC)cc12 [Example number 33, 3,9-Dimethoxy-12-[5-(pyrrolidine-1-yl)pentyl]-6,7-dihydro-12H-benzothiepino [5,4-b]indole]
CC50 ([4]; read-out: LC50, Test-4): 18.2 µM
RBA [5]: <0.001

RBA [5]: 0.032
SMILES: CCCCN(C)CCCCCn1c2c(c3cc(OC)ccc31)CCSc1cc(OC)ccc1-2 [Example number 34, 3,9-Dimethoxy-12-[5-(N-butylmethylamino)pentyl]-6,7-dihydro-12H-benzothiepino [5,4-b]indole]

SMILES: c1ccc2c(c1)SCCc1c-2n(Cc2ccc(OCCCCCN3CCCCC3)cc2)c2ccccc12 [Example number 43, 12-[4-(5-Piperidin-1-yl-pentyloxy)benzyl]-6,7-dihydro-12H-benzothiepino [5,4-b]indole]
% Efficacy [3]: Inactive

SMILES: c1ccc2c(c1)SCCc1c-2n(Cc2ccc(OCCCCCN3CCCCC3)cc2)c2ccccc12 [Example number 60, 12-[4-(5-Piperidin-1-yl-pentyloxy)benzyl]-6,7-dihydro-12H-benzothiepino [5,4-b]indole]
% Efficacy [3]: Inactive
CC50 ([4]; read-out: LC50, Test-4): 18.4 µM

SMILES: CC/C(=C(\c1ccccc1)c1ccc(OCCN(C)C)cc1)c1ccccc1 [Tamoxifen, reference compound]
CC50 ([4]; read-out: LC50, Test-1): 18.5 µM
CC50 ([4]; read-out: LC50, Test-2): 5.5 µM
CC50 ([4]; read-out: LC50, Test-3): 12.4 µM
CC50 ([4]; read-out: LC50, Test-4): 9.8 to 10 µM
